Experiments:
NO production = NO production with recombinant vWF protein
glucose uptake = assay: Glucose uptake with recombinant vWF protein

With “recombinant vWF protein: a recombinant vWF protein with a specific vWF sequence (SEQ ID NO: 1) (EPECNDITARLQYVKVGSCKSEVEVDIHYCQGKCASKAMYSIDINDVQDQCSC; listed as Homo sp.)” the NO production (NO production) was “significantly inhibit” and the glucose uptake (glucose uptake) was “significantly inhibit”.

Reference: patent publication US12121561B1, “Composition for treating or preventing insulin resistance” (KING FAISAL UNIVERSITY, priority 2024, dated 2024)
